Test results published in ChEMBL document CHEMBL5724806, “Unraveling interindividual differences and functional consequences of gut microbial metabolism of immunosuppressants” (2024).

Tests used:
Format in all cases: ADME
[1] = (§1) The drug is tested on Clostridium bolteae strain: DSM15670 for biotransformation under anaerobic condition. The drug concentrations were measured over 6 timepoints collected between 0 and 12 hours of incubation by liquid-chromatography-coupled mass spectrometry (LC–MS); design: dose 5 uM, timepoint 0, 1.5, 3, 6, 9, 12 hours; conditions: enterocloster bolteae, 5 µM
[2] = as §1, with “the gut metagenome community of A-09 with ENA study accession number: PRJEB31790” for “Clostridium bolteae strain: DSM15670”, “7” for “6”; design: dose 5 uM, timepoint 0, 0.75, 1.5, 3, 6, 9, 12 hours; conditions: 5 µM
[3] = (§2) The drug is tested on Escherichia coli strain: DSM27469 for biotransformation under microaerobic condition. The drug concentrations were measured over 6 timepoints collected between 0 and 12 hours of incubation by liquid-chromatography-coupled mass spectrometry (LC–MS); design: dose 5 uM, timepoint 0, 1.5, 3, 6, 9, 12 hours; conditions: 5 µM
[4] = The drug is tested on Parabacteroides merdae strain: DSM19495 for biotransformation under anaerobic condition. The drug concentrations were measured over 6 timepoints collected between 0 and 12 hours of incubation by liquid-chromatography-coupled mass spectrometry (LC–MS); design: dose 5 uM, timepoint 0, 1.5, 3, 6, 9, 12 hours; conditions: 5 µM
[5] = The drug is tested on Bacteroides uniformis strain: DSM6597 for biotransformation under anaerobic condition. The drug concentrations were measured over 6 timepoints collected between 0 and 12 hours of incubation by liquid-chromatography-coupled mass spectrometry (LC–MS); design: dose 5 uM, timepoint 0, 1.5, 3, 6, 9, 12 hours; conditions: 5 µM
[6] = as §1, with “the gut metagenome community of T-03 with ENA study accession number: PRJEB31790” for “Clostridium bolteae strain: DSM15670”, “7” for “6”; design: dose 5 uM, timepoint 0, 0.75, 1.5, 3, 6, 9, 12 hours; conditions: 5 µM
[7] = The drug is tested on Enterococcus faecalis strain: ATCC29212 for biotransformation under microaerobic condition. The drug concentrations were measured over 6 timepoints collected between 0 and 12 hours of incubation by liquid-chromatography-coupled mass spectrometry (LC–MS); design: dose 5 uM, timepoint 0, 1.5, 3, 6, 9, 12 hours; conditions: 5 µM
[8] = The drug is tested on Bifidobacterium longum strain: DSM20088 for biotransformation under microaerobic condition. The drug concentrations were measured over 6 timepoints collected between 0 and 12 hours of incubation by liquid-chromatography-coupled mass spectrometry (LC–MS); design: dose 5 uM, timepoint 0, 1.5, 3, 6, 9, 12 hours; conditions: 5 µM
[9] = The drug is tested on Streptococcus sanguinis strain: DSM20567 for biotransformation under anaerobic condition. The drug concentrations were measured over 6 timepoints collected between 0 and 12 hours of incubation by liquid-chromatography-coupled mass spectrometry (LC–MS); design: dose 5 uM, timepoint 0, 1.5, 3, 6, 9, 12 hours; conditions: 5 µM
[10] = The drug is tested on Roseburia intestinalis strain: DSM14610 for biotransformation under anaerobic condition. The drug concentrations were measured over 6 timepoints collected between 0 and 12 hours of incubation by liquid-chromatography-coupled mass spectrometry (LC–MS); design: dose 5 uM, timepoint 0, 1.5, 3, 6, 9, 12 hours; conditions: 5 µM
[11] = The drug is tested on Streptococcus anginosus strain: DSM20563 for biotransformation under anaerobic condition. The drug concentrations were measured over 6 timepoints collected between 0 and 12 hours of incubation by liquid-chromatography-coupled mass spectrometry (LC–MS); design: dose 5 uM, timepoint 0, 1.5, 3, 6, 9, 12 hours; conditions: 5 µM
[12] = The drug is tested on Parabacteroides distasonis strain: DSM20701 for biotransformation under anaerobic condition. The drug concentrations were measured over 6 timepoints collected between 0 and 12 hours of incubation by liquid-chromatography-coupled mass spectrometry (LC–MS); design: dose 5 uM, timepoint 0, 1.5, 3, 6, 9, 12 hours; conditions: 5 µM
[13] = The drug is tested on Lactobacillus fermentum strain: DSM20052 for biotransformation under microaerobic condition. The drug concentrations were measured over 6 timepoints collected between 0 and 12 hours of incubation by liquid-chromatography-coupled mass spectrometry (LC–MS); design: dose 5 uM, timepoint 0, 1.5, 3, 6, 9, 12 hours; conditions: limosilactobacillus fermentum, 5 µM
[14] = The drug is tested on Dorea formicigenerans strain: DSM3992 for biotransformation under anaerobic condition. The drug concentrations were measured over 6 timepoints collected between 0 and 12 hours of incubation by liquid-chromatography-coupled mass spectrometry (LC–MS); design: dose 5 uM, timepoint 0, 1.5, 3, 6, 9, 12 hours; conditions: 5 µM
[15] = The drug is tested on Odoribacter splanchnicus strain: DSM20712 for biotransformation under anaerobic condition. The drug concentrations were measured over 6 timepoints collected between 0 and 12 hours of incubation by liquid-chromatography-coupled mass spectrometry (LC–MS); design: dose 5 uM, timepoint 0, 1.5, 3, 6, 9, 12 hours; conditions: 5 µM
[16] = The drug is tested on Lactobacillus gasseri strain: DSM20243 for biotransformation under microaerobic condition. The drug concentrations were measured over 6 timepoints collected between 0 and 12 hours of incubation by liquid-chromatography-coupled mass spectrometry (LC–MS); design: dose 5 uM, timepoint 0, 1.5, 3, 6, 9, 12 hours; conditions: 5 µM
[17] = The drug is tested on Actinomyces graevenitzii strain: DSM15540 for biotransformation under microaerobic condition. The drug concentrations were measured over 6 timepoints collected between 0 and 12 hours of incubation by liquid-chromatography-coupled mass spectrometry (LC–MS); design: dose 5 uM, timepoint 0, 1.5, 3, 6, 9, 12 hours; conditions: 5 µM
[18] = The drug is tested on Eubacterium hallii strain: DSM3353 for biotransformation under anaerobic condition. The drug concentrations were measured over 6 timepoints collected between 0 and 12 hours of incubation by liquid-chromatography-coupled mass spectrometry (LC–MS); design: dose 5 uM, timepoint 0, 1.5, 3, 6, 9, 12 hours; conditions: anaerobutyricum hallii, 5 µM
[19] = as §2, with “the gut metagenome community of A-06 with ENA study accession number: PRJEB31790” for “Escherichia coli strain: DSM27469”, “7” for “6”; design: dose 5 uM, timepoint 0, 0.75, 1.5, 3, 6, 9, 12 hours; conditions: 5 µM
[20] = The drug is tested on Blautia hansenii strain: DSM20583 for biotransformation under anaerobic condition. The drug concentrations were measured over 6 timepoints collected between 0 and 12 hours of incubation by liquid-chromatography-coupled mass spectrometry (LC–MS); design: dose 5 uM, timepoint 0, 1.5, 3, 6, 9, 12 hours; conditions: 5 µM
[21] = The drug is tested on Faecalibacterium prausnitzii strain: DSM17677 for biotransformation under anaerobic condition. The drug concentrations were measured over 6 timepoints collected between 0 and 12 hours of incubation by liquid-chromatography-coupled mass spectrometry (LC–MS); design: dose 5 uM, timepoint 0, 1.5, 3, 6, 9, 12 hours; conditions: faecalibacterium duncaniae, 5 µM
[22] = as §2, with “the gut metagenome community of A-10 with ENA study accession number: PRJEB31790” for “Escherichia coli strain: DSM27469”, “7” for “6”; design: dose 5 uM, timepoint 0, 0.75, 1.5, 3, 6, 9, 12 hours; conditions: 5 µM
[23] = The drug is tested on Coprococcus comes strain: ATCC27758 for biotransformation under anaerobic condition. The drug concentrations were measured over 6 timepoints collected between 0 and 12 hours of incubation by liquid-chromatography-coupled mass spectrometry (LC–MS); design: dose 5 uM, timepoint 0, 1.5, 3, 6, 9, 12 hours; conditions: 5 µM
[24] = The drug is tested on Bacteroides caccae strain: DSM19024 for biotransformation under anaerobic condition. The drug concentrations were measured over 6 timepoints collected between 0 and 12 hours of incubation by liquid-chromatography-coupled mass spectrometry (LC–MS); design: dose 5 uM, timepoint 0, 1.5, 3, 6, 9, 12 hours; conditions: 5 µM
[25] = The drug is tested on Streptococcus mitis strain: DSM12643 for biotransformation under microaerobic condition. The drug concentrations were measured over 6 timepoints collected between 0 and 12 hours of incubation by liquid-chromatography-coupled mass spectrometry (LC–MS); design: dose 5 uM, timepoint 0, 1.5, 3, 6, 9, 12 hours; conditions: 5 µM
[26] = as §1, with “the gut metagenome community of A-03 with ENA study accession number: PRJEB31790” for “Clostridium bolteae strain: DSM15670”, “7” for “6”; design: dose 5 uM, timepoint 0, 0.75, 1.5, 3, 6, 9, 12 hours; conditions: 5 µM
[27] = The drug is tested on Streptococcus mitis strain: DSM12643 for biotransformation under anaerobic condition. The drug concentrations were measured over 6 timepoints collected between 0 and 12 hours of incubation by liquid-chromatography-coupled mass spectrometry (LC–MS); design: dose 5 uM, timepoint 0, 1.5, 3, 6, 9, 12 hours; conditions: 5 µM
[28] = The drug is tested on Actinomyces naeslundi strain: DSM43013 for biotransformation under anaerobic condition. The drug concentrations were measured over 6 timepoints collected between 0 and 12 hours of incubation by liquid-chromatography-coupled mass spectrometry (LC–MS); design: dose 5 uM, timepoint 0, 1.5, 3, 6, 9, 12 hours; conditions: actinomyces naeslundii, 5 µM

Bacterial Biotransformation [1]	Bacterial Biotransformation [2]	Bacterial Biotransformation [3]	Bacterial Biotransformation [4]	Bacterial Biotransformation [5]	Bacterial Biotransformation [6]	Bacterial Biotransformation [7]	Bacterial Biotransformation [8]	Bacterial Biotransformation [9]	Bacterial Biotransformation [10]	Bacterial Biotransformation [11]	Bacterial Biotransformation [12]	Bacterial Biotransformation [13]	Bacterial Biotransformation [14]	Bacterial Biotransformation [15]	Bacterial Biotransformation [16]	Bacterial Biotransformation [17]	Bacterial Biotransformation [18]	Bacterial Biotransformation [19]	Bacterial Biotransformation [20]	Structure (SMILES)	other results
Compound NOT metabolized	Compound NOT metabolized	Compound NOT metabolized	Compound NOT metabolized	Compound NOT metabolized	Compound NOT metabolized	Compound NOT metabolized	Compound NOT metabolized	Compound NOT metabolized	Compound NOT metabolized	Compound NOT metabolized	Compound NOT metabolized	Compound NOT metabolized	Compound NOT metabolized	Compound NOT metabolized	Compound NOT metabolized	Compound NOT metabolized	Compound NOT metabolized	Compound NOT metabolized	Compound NOT metabolized	CCOC(=O)[C@H](CCc1ccccc1)N[C@@H](C)C(=O)N1[C@H](C(=O)O)C[C@@H]2CCC[C@@H]21	Bacterial Biotransformation [21]: Compound NOT metabolized; Bacterial Biotransformation [22]: Compound NOT metabolized; Bacterial Biotransformation [23]: Compound NOT metabolized; Bacterial Biotransformation [24]: Compound NOT metabolized; Bacterial Biotransformation [25]: Compound NOT metabolized; Bacterial Biotransformation [26]: Compound NOT metabolized; Bacterial Biotransformation [27]: Compound NOT metabolized; Bacterial Biotransformation [28]: Compound NOT metabolized
Compound NOT metabolized	Compound NOT metabolized	Compound NOT metabolized	Compound NOT metabolized	Compound NOT metabolized	Compound NOT metabolized	Compound NOT metabolized	Compound NOT metabolized	Compound NOT metabolized	Compound NOT metabolized	Compound NOT metabolized	Compound NOT metabolized	Compound NOT metabolized	Compound NOT metabolized	Compound NOT metabolized	Compound NOT metabolized	Compound NOT metabolized	Compound NOT metabolized	Compound NOT metabolized	Compound NOT metabolized	CC(C)NCC(O)COc1ccc(CC(N)=O)cc1 (centres undefined) [ATENOLOL]	Bacterial Biotransformation [21]: Compound NOT metabolized; Bacterial Biotransformation [22]: Compound NOT metabolized; Bacterial Biotransformation [23]: Compound NOT metabolized; Bacterial Biotransformation [24]: Compound NOT metabolized; Bacterial Biotransformation [25]: Compound NOT metabolized; Bacterial Biotransformation [26]: Compound NOT metabolized; Bacterial Biotransformation [27]: Compound NOT metabolized; Bacterial Biotransformation [28]: Compound NOT metabolized
Compound NOT metabolized	Compound metabolized	Compound metabolized	Compound metabolized	Compound metabolized	Compound NOT metabolized	Compound metabolized	Compound metabolized	Compound metabolized	Compound metabolized	Compound metabolized	Compound metabolized	Compound NOT metabolized	Compound metabolized	Compound NOT metabolized	Compound NOT metabolized	Compound metabolized	Compound metabolized	Compound metabolized	Compound NOT metabolized	Cn1cnc([N+](=O)[O-])c1Sc1ncnc2nc[nH]c12 [AZATHIOPRINE]	Bacterial Biotransformation [21]: Compound metabolized; Bacterial Biotransformation [22]: Compound NOT metabolized; Bacterial Biotransformation [23]: Compound metabolized; Bacterial Biotransformation [24]: Compound metabolized; Bacterial Biotransformation [25]: Compound NOT metabolized; Bacterial Biotransformation [26]: Compound metabolized; Bacterial Biotransformation [27]: Compound metabolized; Bacterial Biotransformation [28]: Compound NOT metabolized
